According to patent publication US20240309090A1, “MODULATION OF ANDROGEN SIGNALING TO INNATE IMMUNE KILLING OF PROSTATE CANCER” (Brown University, priority 2023, published 2024):

Tests used:
Format in all cases: cell-based
[1] = tested on: PCa cell lines (PC3, LNCaP, 22Rv1, DU145); test: Cytokine profiling of prostate cancer cell culture supernatants (Luminex 200); conditions: for IFN-γ secretion: DU145, 22Rv1, and PC3 cell lines; for secretion of immune-activating cytokines such as IL-2 / secretion of pro-tumorigenic and immunosuppressive cytokines such as VEGF, M-CSF, IL-8, CXCL10 and GDF-15: PCa cell lines, 24 h
Description: GDF-15 is implicated in the immunosuppressive prostate cancer TME and the progression of benign prostate hyperplasia to adenocarcinoma.
The medium was collected 24 hours after treatment and stored at −80° C. until readout. Samples were shipped to Brown University to run them in biological duplicate on a Luminex 200 Instrument (R&D LX200-XPON-RUO), which captures cytokines on magnetic antibody-coated beads and measures cytokine levels using a system based on the principles of flow cytometry (see https:/www.luminexcorp.com/luminex-100200/#overviewfor more information). A custom […] panel was split into 34-plex and 18-plex assays (R&D LXSAHM) and was run on the Luminex 200 instrument according to the manufacturer's protocol.
(§1) We conducted cell viability assays to investigate the effect of Enza and Daro on PC cells (LNCap, 22Rv1 [ARv7 mutation], DU145, PC3 [AR-]) and NK-92 cells. We performed co-culture experiments with PC and NK cells in a 1:1 ratio and analyzed immune cell-mediated tumor cell killing (ImageXpress Confocal HT). Cytokine profiling (Luminex 200) of culture supernatants was performed following treatment with ARi−/+ and anti-IFN-γ antibodies. In vivo studies were performed in NCr Nude mice harboring subcutaneous PC tumors treated orally with Daro (50 mg/kg/bid) and Enza (30 mg/kg/bid) for 4 weeks.

LNCaP cells = test: Flow cytometry of HLA-E / PD-L1 surface expression on LNCaP; conditions: 48 h; for HLA-E surface expression / PD-L1 expression: Example 2, LNCaP; for HLA-E surface expression, mean fluorescence intensity (MFI): LNCaP, enza 15 μM, daro 20 μM
Description: The effect of ARi on the NKG2A ligand, HLA-E, was investigated by flow cytometry on PCa cells treated with enza and daro.
PCa cells were plated at a density of 3×10^5 cells per well of a 6-well plate and adhered overnight. […] After treatment, cells were trypsinized, stained, and incubated (Cell Staining Buffer SouthernBiotech #0225-01S) with the corresponding antibody for 45-60 min at 4° C. Viability dye was added with each run. NK-92 cells and patient-derived cells were stained similarly. Markers used for experiments included: Thermofisher HLA-E Monoclonal Antibody (3D12HLA-E), Alexa Fluor™ 488, eBioscience™, CD274 (PD-L1, B7-H1) Monoclonal Antibody (MIH1), eFluor™ 450, eBioscience™, Cell Signaling PD-1 (D4W2J) XPR Rabbit mAb, SYTOX™ Orange Dead Cell Stain, for flow cytometry, BioLegend APC anti-human CD159a (NKG2A) Antibody #375108, BioLegend APC anti-human CD69 Antibody #310909, BioLegend Alexa Fluor® 647 anti-human CD137 (4-1BB) [4B4-1] #309823. For staining of the patient-derived PBMCs and subsequent NK cell characterization, the following antibodies were used: BioLegend Anti-Perforin Mouse Monoclonal Antibody (PerCP Cy5.50, clone: dG9) #308113, BioLegend Anti-Granzyme B Mouse Monoclonal Antibody (FITC, clone: GB11) #515403, BioLegend Anti-CD56 Mouse Monoclonal Antibody (Alexa Fluor® 700, clone: 5.1H1) #362521, and BioLegend (PE anti-human CD45 Antibody) #304008.
The effect of androgen pathway inhibitors in the expression of HLA-E, a negative and key negative modulator of NK cell function, was also performed using Flow Cytometry. PD-L1 expression levels were also measured. In advance, The NK cell immune checkpoint inhibitor monalizumab (targeting NKG2A and its ligand, HLA-E) was also combined with ARi.

[2] = tested on: PC cell lines (LNCap, 22Rv1, DU145, PC3); test: Co-cultures of PC cell lines with NK cells (1:1), immune-mediated PC killing; conditions: for immune-mediated PC killing effect: Example 2, PC with NK-92 cells and patient-derived NK cells, within 24 hrs
Description: Prostate cancer cell lines were dyed with the blue CMAC live-cell dye (Thermo Fisher Scientific #C2110, per manufacturer protocol). Blue-fluorescent cancer cells were plated at a density of 10,000 cells per well of a 48-well plate. NK-92 cells were dyed with green CMFDA (Cayman Chemical Company #19583, per manufacturer protocol). Green-fluorescent NK-92 cells were added to the blue-fluorescent cancer cells at a 1:1 ratio. Enzalutamide (10 μM), darolutamide (20 μM), and 1 μM ethidium homodimer (EthD-1) were added at the same time as the NK cells. After 24 hours of co-culture, images of live cancer cells, live NK cells, and dead cells were taken using a fluorescent microscope. The co-culture experiments were run with internal control conditions and as a single treatment. Normalization was performed after analysis to take baseline death conditions into each experiment run. To optimize the high output of these experiments, a subset of co-cultures were performed using the ImageXpress® Micro Confocal High-Content Imaging. This analysis maintained the experiment conditions, drug concentrations, and the dyeing process. When GFP-labeled tumor cells were used for culture assays, they were added in a 1:1 ratio. Cell adhered over 24 h, and when patient-derived NK cells were added, a control well was trypsinized, and cells resuspended and counted to adjust a 1:1 ratio before treatment addition. The experiments with blocking antibodies were performed using the ImageXpress system. TRAIL blocking ab was purchased from Santa Cruz TRAIL Antibody (RIK-2): sc-56246, and IFN gamma blocking Monoclonal Antibody (NIB42, #6-7318-81) was purchased from Thermo Fisher. The blocking mAb was added when NK cells were combined with tumor cells.
Live cancer cells, NK cells, and dead cells were quantified using FIJI (Fiji Is Just ImageJ) software for images derived from fluorescent co-culture images. Images from the ImageXpress system were quantified using MetaXpress cytoplasmic/nuclear staining software. The percent of dead tumor cells in each well was quantified, and this percentage was normalized by subtracting baseline death from cancer cell-only wells, NK cell-only wells, or both. A two-way ANOVA was used to calculate the interaction effect between drug treatment and NK cells.
In groups with a significant interaction effect, data was further normalized in the cancer cell+NK cells+drug treatment well by subtracting out death in the cancer cell+drug well. A one-way ANOVA and multiple comparison analysis with subsequent t-tests were used to calculate the statistical significance of the difference between this group and the cancer cell+NK cell well. GraphPad Prism Version 9.5.1 was used for statistical analysis.
as §1
We performed ATP-based (CellTiter-Glo) viability assays to investigate the effect of Enzalutamide and Darolutamide on PC cell lines (LNCap, 22Rv1 [ARv7 mutation], DU145, PC3 [AR-]) and NK-92 cells. We performed co-culture experiments with PC and NK cells at a 1:1 ratio throughout 4 h, 6 h, 12 h, 24 h, and 48 h periods. We analyzed immune cell-mediated tumor cell killing in the presence of Enza and Darolutamide (ImageXpress Confocal HT). Western Blotting was performed to evaluate different protein expression levels and their regulation related to sensitivity in mediating immune-mediated cell killing (apoptotic family). […]

[3] = Example 1, PC + NK-92, within 24 hours
[4] = Example 2, PC + NK-92, within 24 hours, blocking mAbs 10 ug/ml

| SMILES | IFN-γ secretion [1] | secretion of immune-activating cytokines such as IL-2 [1] | secretion of pro-tumorigenic and immunosuppressive cytokines such as VEGF, M-CSF, IL-8, CXCL10 and GDF-15 [1] | HLA-E surface expression (LNCaP cells) [%] | PD-L1 expression (LNCaP cells) | HLA-E surface expression, mean fluorescence intensity (MFI) (LNCaP cells) | immune-mediated PC killing [2, 3] [%] | immune-mediated PC killing [2, 4] [%] | immune-mediated PC killing effect [2] [%] |
| --- | --- | --- | --- | --- | --- | --- | --- | --- | --- |
| CC(O)c1cc(C(=O)N[C@@H](C)Cn2ccc(-c3ccc(C#N)c(Cl)c3)n2)n[nH]1 (stereo partly drawn) [darolutamide] | upregulation | increased | reduced | 0.8 | increase | 39.47±3.39×10^3 | 41 | 36 | 36 |
| CNC(=O)c1ccc(N2C(=S)N(c3ccc(C#N)c(C(F)(F)F)c3)C(=O)C2(C)C)cc1F [enzalutamide] | upregulation | increased | reduced | 1.1 | increase | 37.38±1.7×10^3 | 36 | 40 | 40 |
